The source of these data is US20250212873A1, “VOLATILE HDAC INHIBITORS FOR THERAPEUTIC AND PLANT APPLICATIONS” (The Regents of the University of California, priority 2022, published 2025).

“Also recorded” adds a separate entry of the source.

Assay [1] deals with Class I and Class II HDACs. Briefly: In vitro assays with purified human Class I and II HDACs (panel statements). The assay is classed as biochemical. Particulars: 15 mM in 1% DMSO; HDAC 1, 3, 4 and 6. As to the method: Presented are data for selected compounds that act as Histone deacetylase inhibitors in vitro or HDAC inhibitors. 26 compounds were screened against purified human HDACs.
HDAC activity of class I HDACs (HDAC1 and 3) was measured with the fluorometric HDAC Activity Assay kit: HDAC1 (10011563, Cayman Chemical, Ann Arbor, MI) and HDAC3 (50073 BPS Bioscience, San Diego, CA), according to the manufacturer's instructions. HDAC activity of class II HDACs (HDAC4 and HDAC6) was measured with the fluorometric HDAC Activity Assay kit: HDAC4, […] (50064 and 50076, BPS Bioscience, San Diego, CA), according to the manufacturer's instructions. All compounds were tested in single dose duplicate mode at 15 mM concentrations in 1% DMSO, based on the IC50 of 2,3-butanedione established in earlier work. Due to interference, concentrations of >30 mM were not used in the IC50 calculation. To account for any interference at lower concentrations, all baseline measurements of blank wells (no HDAC enzyme) were performed and subtracted with the various concentrations of 2,3-butanedione.
Diacetyl and 3 structurally related VOCs were evaluated using in vitro assay kits for measuring activity of four purified HDACs. Of the four VOCs), each has a different functional group, two are natural in origin, previously detected from microbes that are known to be present in soil (M. C. Lemfack et al., Nucleic Acids Res 46, D1261-D1265 (2018); and R. H. Cagan, W. N. Zeiger, Proc. Nat. Acad. Sci. U.S.A. 75, 4679-4683 (1978)) and two that are not (α-angelica lactone and ethyl pyruvate). […] All 4 VOCs inhibited both Class I HDACs (L. L. Walling, The Myriad Plant Responses to Herbivores. J Plant Growth Regul 19, 195-216 (2000); and M. Heil, R. Karban, Trends Ecol Evol 25, 137-144 (2010)) and the Class II HDAC6 with differences in degree (FIG. 2A,B).

In the next assay the test system is A549 Cancer cell line. Briefly: Cancer cell viability assay, A549. The assay is classed as cell-based, human. As to the method: (§1) Cells were maintained in a 37° C. incubator with 5% CO2 throughout the experiment. Compound stocks were dissolved in 10% DMSO, but final concentrations were made fresh in complete media as needed. 10% DMSO solvent was used as control in complete media. Cells were seeded onto 12-well plates and allowed 12-24 hours until treatment began to allow cells to adhere to wells. This was followed by minimum 5-day treatment of compounds, changing the media with treatment every 48 hours. Cell lines A549, PC3, and SK-MEL-5 were seeded at 8000 cells/well which would provide 80-100% confluency after 6-day growth. SH-SY5Y was seeded at 8000 cells/well then 16,000 cells/well due to slower growth and given at least 10 days for sufficient growth. After allotted growth times, cell counts were performed via Countess™ automated cell counter. All assays were completed with a minimum of triplicate replicates for all conditions and analyzed through GraphPad Prism One-way ANOVA for significance.

The next assay deals with SH-SY5Y Cancer cell line. Description: Cancer cell viability assay, SH-SY5Y. The assay is classed as cell-based. As to the method:
as §1

Assay [2] relates to A. thaliana plants (Col-0). Description: Cold tolerance assay. The assay is classed as in vivo, Arabidopsis thaliana. Particulars: cold treatment to -10° C., scored after 5 days; controls ~30%. As to the method: HDACs have also been implicated in responses to a number of abiotic stresses, such as temperature, drought, salt, etc in a variety of ways (M. Luo, et al., Frontiers in Plant Science 8, (2017)). One of the phenotypes that can be rapidly tested in a laboratory is tolerance to cold temperatures in Arabidopsis. […] The yellowing of leaves was determined after 5 days and the controls ˜30% of the leaves turned yellow-brown in the classic cold response previously documented.
Twenty six day old A. thaliana plants (Col-0), that had been transplanted at day 7 to soil, were cold-acclimatized the plants for 7 days at 4° C., and then transferred to respective odor exposure chambers with a petridish containing 2 ml of chemical dissolved in PO or PO alone in a freezing chamber in which temperatures went down every 2° C. for 0.5 h and maintained for 1 hour, and it dropped up to −10° C. […] The survival rate was determined after 5 days. […] One-way analysis of Variance (ANOVA) between groups was performed for plant exposure quantitative data using Graph Pad Prism 9.

Another assay relates to mouse brain. Description: Brain RNA-seq of mice exposed to diacetyl vapors. The assay is classed as in vivo. As to conditions: 5 days. An excerpt:
HDAC inhibitors are an important class of drugs being tested for a number of different conditions including neurodegenerative diseases and brain cancers. A major design challenge for such drugs is the ability to cross the blood-brain barrier. An interesting possibility that arises due to the volatility and small size of odorants is that they could diffuse through the intranasal route to the brain directly. To test whether cells in the brain respond to diacetyl vapors by altering gene expression RNA-seq experiments were carried out on mice exposed only to aroma of diacetyl for 5 days. Littermate controls were exposed in a similar manner to the solvent (PO) headspace.
The DEGs from the diacetyl-exposed mouse brain transcriptome for several of these key genes were evaluated.

Setting [3] is: 0.1% headspace, |log2 fold-change|>1, FDR<0.05.
The mark [4] stands for this setting: 1% headspace, |log2 fold-change|>1, FDR<0.01.

Consider `CC(=O)C(C)=O` [2,3-butanedione], for which the “HDAC inhibition against Class I and Class II HDACs” value in assay [1] was “inhibits both class 1 and class 2 HDACs”. Further, the “changes in proliferation, A549” value in the assay with A549 Cancer cell line (100 mM treatment, triplicates) was “No significant changes in proliferations”. In addition, in the assay with A549 Cancer cell line (33 micro-molar), the “inhibition of cell growth, A549” value is recorded as “may be some A549 inhibition”. Further, the “inhibition of neuroblastoma (SH-SY5Y) cell line, summary” value in the assay on SH-SY5Y Cancer cell line was “has potential in inhibiting”. The “changes in proliferation, SH-SY5Y” value with SH-SY5Y Cancer cell line (33 micro-molar) was “significant inhibition of cell growth; also recorded: Significant changes in proliferations”. Moreover, the “changes in proliferation, SH-SY5Y” value in the assay on SH-SY5Y Cancer cell line (100 micro-molar) is recorded as “significant inhibition of cell growth; also recorded: Significant changes in proliferations”. Also, the “yellow leaves after freezing” value in assay [2] is recorded as approximately 20%. Also, in the assay on mouse brain (setting [3]), the “down regulated genes in mouse brain” value was 32 genes and the “up-regulated genes in mouse brain” value is given as 49 genes. In the assay with mouse brain (setting [4]), the “down regulated genes in mouse brain” value worked out at 1031 genes and the “up-regulated genes in mouse brain” value is on record as 748 genes. In the assay on mouse brain (exposed mice of FIG. 22B (1%)), the “Alk expression in mouse brain” value was “significantly downregulated”, the “ERCC6L2 expression in mouse brain” value is listed as “significantly downregulated”, the “MycN expression in mouse brain” value was “significantly downregulated” and the “NCAN expression in mouse brain” value is given as “significantly downregulated”. Besides, the “STK33 expression in mouse brain” value with mouse brain (exposed mice of FIG. 22B (1%)) is “significantly downregulated”. For the same compound, the “gene expression in the mouse brain (RNA-seq), in words” value in the assay on mouse brain (inhaled vapors, 0.1% or 1% solution headspace) is given as “changes in expression of a number of genes, in a dose dependent manner”.
